Test results reported in patent US20240270786A1, “STEROID COMPOUNDS” (Epirium Bio Inc., priority 2022, published 2024).

How the values were obtained:
Format in all cases: biochemical, mouse
[1] = test system: mitochondrial ATP synthase; assay: ATP synthesis (oxygen consumption, Seahorse XF96) in fresh heart mitochondria; details: Complex I or Complex II substrates (FIG. 1, FIG. 2)
Excerpt: (§1) To assess whether the fraction of synthetic and reverse hydrolytic activities of mitochondrial ATP synthase can be measured in the same preparation, a protocol was developed to monitor changes in oxygen consumption and proton release in response to changes in mitochondrial ATP synthase activity. The proton released and the concomitant changes in the pH can be monitored using the ECAR (extracellular acidification) channel in the Agilent Seahorse XF analyzer using isolated mitochondria, to ensure that the changes in pH cannot be attributed to glycolysis or other contributors to ECAR.
Mice were anesthetized with isoflurane followed by a cervical dislocation, and the heart was immediately removed and placed in ice cold relaxation buffer (5 mM sodium pyrophosphate, 100 mM KCl, 5 mM EGTA, 5 mM HEPES; pH 7.4). […] The mitochondrial pellets were re-suspended in ice cold HES buffer and mitochondrial protein was measured with a BCA assay (Pierce). […]
Oxygen consumption was measured in isolated fresh intact mitochondria from mouse heart, as oxygen consumption is linked to maximal ATP synthesis and proton release when mitochondria are respiring either in the presence of substrates and ADP (ATP synthesizing mitochondria or state 3) or in the presence of substrates but not ADP (state 4). […]

[2] = test system: mitochondrial ATP synthase; assay: ATP hydrolysis (acidification, Seahorse XF96) in fresh heart mitochondria; details: fresh heart mitochondria (FIG. 1, FIG. 2)
Excerpt: as §1
Mice were anesthetized with isoflurane followed by a cervical dislocation, and the heart was immediately removed and placed in ice cold relaxation buffer (5 mM sodium pyrophosphate, 100 mM KCl, 5 mM EGTA, 5 mM HEPES; pH 7.4). The heart was squeezed with tweezers to remove blood, minced with scissors, and then placed in a glass-glass Dounce homogenizer with 3 mL of HES homogenization buffer (250 mM sucrose, 5 mM HEPES, 1 mM EDTA; pH to 7.2, adjusted with KOH). The heart tissue was homogenized first with the loose pestle and followed by the tight pestle. The homogenized tissue was placed in a pre-chilled 15 mL conical tube and centrifuged at 900×g (4° C.) for 10 minutes (min). The supernatant was removed, placed in a new tube and centrifuged again at 900×g for 10 min. The supernatant was then transferred to 2 mL microcentrifuge tubes and centrifuged at 10,000×g (4° C.) for 10 min. The mitochondrial pellets were re-suspended in ice cold HES buffer and mitochondrial protein was measured with a BCA assay (Pierce). The concentrated mitochondrial pellet was stored on ice. […]
ATP hydrolysis capacity or state 4 acidification was measured using Seahorse XF96 as described in Divakaruni et al. (2018) Anal Biochem 552:60-65 and Acin-Perez et al. (2021) Life 11(9):949, in MAS (70 mM Sucrose, 220 mM Mannitol, 5 mM KH2PO4, 5 mM MgCl2, 1 mM EGTA, 2 mM HEPES; pH 7.2). […]

[3] = test system: mitochondrial ATP synthase; assay: Maximal ATP hydrolysis capacity in frozen heart mitochondria; details: oligomycin at different concentrations in the assay media
Method: Plates were loaded with 0.75-1.5 μg of mouse heart mitochondria, or 25 μg of cell lysate. Cell lysates were prepared by subjecting the samples to 4 cycles of free thaw (liquid nitrogen—37° C. water bath) before measuring protein concentration. When assessing compounds effect on respirometry, the compounds were added in MAS after sample centrifugation. Initial respiration of the samples was sustained by the addition of 5 mM succinate+2 μM rotenone in the MAS after centrifugation. Injections were performed at the following final concentration in the well: Antimycin A (2 μM), oligomycin (5 μM), FCCP (1 μM), ATP (20 mM). To assess maximal ATP concentration, ATP was injected consecutively. An additional assay was developed to determine the maximal ATP hydrolysis capacity in frozen mitochondria. Maximal ATP hydrolytic capacity was assessed in frozen heart mitochondria where mitochondrial respiration is inhibited by Antimycin A and maximal ATP hydrolysis is driven by co-injection of FCCP and ATP, followed by inhibition in the presence of oligomycin.

CC[C@H]1/C=C/C=C/C[C@@H](C)[C@H](O)[C@@](C)(O)C(=O)[C@@H](C)[C@H](O)[C@@H](C)C(=O)[C@@H](C)[C@H](O)[C@@H](C)/C=C/C(=O)O[C@@H]2[C@H](C)[C@H](CC1)O[C@]1(CC[C@H](C)[C@H](C[C@@H](C)O)O1)[C@H]2C [Oligomycin, oligomycin, reference compound]
ATP synthesis [1]: worked as expected
ATP hydrolysis [2]: worked as expected
ATP hydrolysis [3]: dose dependent inhibition of ATP hydrolysis
